The values that follow come from patent US4987150A, “Agent for inhibiting binding of 5-dihydro-testosterone with androgen receptor as well as process for obtaining same” (Kabushiki Kaisha Vitamin Kenkyusho, priority 1987, dated 1991).

Assay [1] concerns the target T1, androgen receptor (Mesocricetus auratus, UniProt A0A1U7QL32).
T1 construct: a sebaceous gland in flank organ was excised and homogenized; from tissue; host or cells: male Syrian hamster flank organ sebaceous gland, 16 hours after castration; supernatant of homogenate centrifuged at 30,000 rpm for 1 hour
T1 sequence (A0A1U7QL32 1-900): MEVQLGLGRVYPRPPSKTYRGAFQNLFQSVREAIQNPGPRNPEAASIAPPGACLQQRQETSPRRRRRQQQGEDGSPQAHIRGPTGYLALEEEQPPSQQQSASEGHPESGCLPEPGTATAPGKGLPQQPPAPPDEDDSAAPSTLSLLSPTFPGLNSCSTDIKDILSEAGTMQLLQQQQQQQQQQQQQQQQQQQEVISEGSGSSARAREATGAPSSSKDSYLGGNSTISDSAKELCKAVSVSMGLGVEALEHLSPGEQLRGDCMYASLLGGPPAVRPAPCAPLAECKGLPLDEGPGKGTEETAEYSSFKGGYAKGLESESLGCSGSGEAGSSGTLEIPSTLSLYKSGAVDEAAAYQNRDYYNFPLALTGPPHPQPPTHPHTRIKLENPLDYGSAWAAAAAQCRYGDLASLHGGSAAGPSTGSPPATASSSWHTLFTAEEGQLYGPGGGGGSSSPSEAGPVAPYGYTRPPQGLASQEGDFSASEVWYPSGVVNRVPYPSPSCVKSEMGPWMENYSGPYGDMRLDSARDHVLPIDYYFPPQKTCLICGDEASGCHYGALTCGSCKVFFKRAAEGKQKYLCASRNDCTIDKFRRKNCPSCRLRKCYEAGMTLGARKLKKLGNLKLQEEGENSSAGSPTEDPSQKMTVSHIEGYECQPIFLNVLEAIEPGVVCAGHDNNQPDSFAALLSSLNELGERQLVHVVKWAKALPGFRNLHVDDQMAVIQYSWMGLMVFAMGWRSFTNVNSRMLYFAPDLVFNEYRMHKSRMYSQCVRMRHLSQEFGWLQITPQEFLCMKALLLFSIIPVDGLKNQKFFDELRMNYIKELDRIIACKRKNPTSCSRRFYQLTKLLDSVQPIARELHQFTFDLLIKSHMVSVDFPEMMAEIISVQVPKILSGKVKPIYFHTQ
Nature of the assay: Inhibition of [3H]R1881 binding with androgen receptor (Pharmacological Test Example 1; also Test Example 2). Details: species or system male Syrian hamster (sebaceous gland in flank organ). The settings on record: for IC50: chemically synthesized xanthones, calculated from inhibition rate, 1 nM [3H]R1881, 0° C., 16 hours, read-out: Concentration for 50% Inhibition. The procedure: (a) Preparation of androgen receptor
From a male Syrian hamster 16 hours after castration, a sebaceous gland in flank organ was excised and homogenized in 5-10 times (volume) of 50 mM-Tris-HCl buffer (pH 7.4) containing 1.5 mM-EDTA, 1 mM-DTT, 10 mM-Na2 MoO4, and 10% (w/v) glycerol. The homogenate was centrifuged at 3,000 rpm and 0°-4° C. for 10 minutes to obtain the supernatant, which was further centrifuged at 30,000 rpm and 0°-4° C. for 1 hour to obtain the supernatant to be employed as androgen receptor.
(b) Determination of inhibitory activity
Then the mixture was added with a suspension (500 μl) of 0.5% charcoal and 0.05% dextran T-70. After standing at 0° C. for 10 minutes, the mixture was centrifuged at 3,000 rpm for 10 minutes. The supernatent (300 μl) was mixed with a liquid scintillator to measure the radioactivity due to binding of [^3 H]R1881 with the androgen receptor in scintillation counter. The inhibition rate of each extract was calculated according to the following equation.
Inhibition (%)=[(c-s)/c]×100 […]
c: specific binding amount of [^3 H]R1881 with androgen receptor without addition of test sample; and s: specific binding amount of [^3 H]R1881 with androgen receptor with addition of the test sample.

The test system of assay [2] is 5α-reductase. The settings on record: reported in Jap. Pat. No. 60-126218 (A); cited from earlier work.

SMILES strings stand for the structures.

Regarding `O=c1c2c(O)cc(O)cc2oc2c(O)ccc(O)c12` [A], the IC50 in assay [1] is 8 µM. Still for that read-out and setting: to `O=c1c2c(O)cc(O)cc2oc2cc(O)cc(O)c12` [B] belongs 5.1 µM; to `O=c1c2ccc(O)cc2oc2c(O)ccc(O)c12` [C], 1.8 µM. On to `O=c1c2cccc(O)c2oc2cc(O)cc(O)c12` [D], for which the IC50 in assay [1] was 34 µM.

Regarding `O=c1c2ccc(O)cc2oc2cc(O)cc(O)c12` [E], in assay [1], the IC50 was 4.1 µM. Still for that read-out and setting: the result for `O=c1c2c(O)cccc2oc2cc(O)cc(O)c12` [F] reads 20 µM; that for `O=c1c2ccccc2oc2cc(O)cc(O)c12` [G], 53 µM; that for `O=c1c2ccc(O)cc2oc2cccc(O)c12` [H], 7.6 µM.

Take `O=c1c2c(O)cc(O)cc2oc2c(O)ccc(O)c12` [Test sample A, 1,3,5,8-Tetrahydroxyxanthone]: the “inhibition of binding of 5α-DHT with androgen receptor” value in assay [1] (statement in words) is given as “shows the inhibition of binding of 5α-DHT with androgen receptor”. In the case of `CC1(C)CC[C@]2(C(=O)O)CC[C@]3(C)C(=CC[C@@H]4[C@@]5(C)CC[C@H](O)C(C)(C)[C@@H]5CC[C@]43C)[C@@H]2C1` [oleanolic acid], the “inhibition of the activity of 5α-reductase” value in assay [2] is “showing the inhibition”.
